Activity calls are given as the source filed them. The rule behind the calls is not given here.
Tests used:
[1] = Tmax in BALB/c mouse at 10 mg/kg, ip measured for 24 hrs by LC-MS/MS analysis; type: ADME, organism-based; details: in vivo
Mus musculus [2] = test: (§1) Reno-protective activity against CLP-induced acute kidney injury C57BL/6J mouse model assessed as decrease in IL-18 mRNA expression in kidney at 20 mg/kg, ip administered twice at 30 mins prior to CLP operation and 8 hrs post-CLP operation and measured at 16 hrs post-CLP operation by RT-qPCR analysis; type: functional, organism-based; details: time 16.5 hrs
[3] = Half life in BALB/c mouse at 10 mg/kg, ip measured for 24 hrs by LC-MS/MS analysis; type: ADME, organism-based; details: in vivo
[4] = Cmax in BALB/c mouse at 10 mg/kg, po measured for 24 hrs by LC-MS/MS analysis; type: ADME, organism-based; parameters: time 24 hrs, dose 10 mg/kg, route po; details: in vivo
Mus musculus [5] = test: as §1, with “GSDMD” for “IL-18”; type: functional, organism-based; details: time 16.5 hrs
Mus musculus [6] = test: as §1, with “IL-1 beta” for “IL-18”; type: functional, organism-based; details: time 16.5 hrs
Cytochrome P450 3A4 = Cytochrome P450 3A4 (Homo sapiens, UniProt P08684); test: Inhibition of CYP3A4 in human liver microsomes using midazolam as substrate upto 100 uM incubated for 10 mins in presence of NADPH by LC-MS/MS analysis; type: ADME, Microsome
Cytochrome P450 2E1 = Cytochrome P450 2E1 (Homo sapiens, UniProt P05181); test: Inhibition of CYP2E1 in human liver microsomes using cholorzoxazone-as substrate upto 100 uM incubated for 10 mins in presence of NADPH by LC-MS/MS analysis; type: ADME, Microsome
[7] = biological target: T1, P2X purinoceptor 7 (Mus musculus) (UniProt Q9Z1M0); test: Antagonist activity at mouse P2X7 receptor expressed in HEK293 cells assessed as inhibition of ATP-induced receptor pore formation at 1 uM by propidium iodide dye uptake based fluorescence analysis; type: cell-based; details: filed as antagonist
T1 sequence (whole entry): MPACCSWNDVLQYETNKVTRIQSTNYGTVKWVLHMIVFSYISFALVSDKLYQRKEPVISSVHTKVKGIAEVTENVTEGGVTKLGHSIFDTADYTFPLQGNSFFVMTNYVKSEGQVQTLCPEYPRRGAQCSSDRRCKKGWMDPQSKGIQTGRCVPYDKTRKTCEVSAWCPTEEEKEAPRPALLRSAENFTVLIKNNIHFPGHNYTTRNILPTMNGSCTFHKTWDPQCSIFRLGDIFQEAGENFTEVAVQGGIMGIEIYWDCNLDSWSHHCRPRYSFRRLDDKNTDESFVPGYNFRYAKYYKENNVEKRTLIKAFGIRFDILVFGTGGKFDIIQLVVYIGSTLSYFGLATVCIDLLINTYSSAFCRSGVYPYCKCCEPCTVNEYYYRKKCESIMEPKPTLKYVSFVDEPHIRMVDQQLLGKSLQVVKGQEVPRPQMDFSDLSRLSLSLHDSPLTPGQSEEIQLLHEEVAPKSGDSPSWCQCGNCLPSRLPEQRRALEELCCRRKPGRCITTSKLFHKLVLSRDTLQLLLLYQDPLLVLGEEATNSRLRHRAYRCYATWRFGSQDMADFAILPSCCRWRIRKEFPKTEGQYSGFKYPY

P2X purinoceptor 7 = biological target: T2, P2X purinoceptor 7 (Mus musculus, UniProt Q9Z1M0); test: Antagonist activity at mouse P2X7 receptor expressed in HEK293 cells assessed as inhibition of ATP-induced receptor pore formation by propidium iodide dye uptake based fluorescence analysis; type: cell-based
T2 sequence (Q9Z1M0 whole entry): T1 sequence (whole entry)

Mus musculus [8] = test: Reno-protective activity against LPS-induced acute kidney injury C57BL/6J mouse model assessed as decrease in tubular injury by measuring improvement of infiltration of inflammatory cells at 5 to 20 mg/kg, ip administered twice at 30 mins prior to LPS challenge and 8 hrs post-LPS challenge and measured at 16 hrs post-LPS challenge by Hematoxylin-Eosin staining based analysis; type: functional, organism-based; details: dose 5-20 mg/kg, time 16.5 hrs
Mus musculus [9] = test: as §1, with “Il17 gene” for “IL-18 mRNA”, “RNA sequencing” for “RT-qPCR”; type: functional, organism-based; details: time 16.5 hrs

Chain of Cytochrome P450 3A4 (P08684 whole entry): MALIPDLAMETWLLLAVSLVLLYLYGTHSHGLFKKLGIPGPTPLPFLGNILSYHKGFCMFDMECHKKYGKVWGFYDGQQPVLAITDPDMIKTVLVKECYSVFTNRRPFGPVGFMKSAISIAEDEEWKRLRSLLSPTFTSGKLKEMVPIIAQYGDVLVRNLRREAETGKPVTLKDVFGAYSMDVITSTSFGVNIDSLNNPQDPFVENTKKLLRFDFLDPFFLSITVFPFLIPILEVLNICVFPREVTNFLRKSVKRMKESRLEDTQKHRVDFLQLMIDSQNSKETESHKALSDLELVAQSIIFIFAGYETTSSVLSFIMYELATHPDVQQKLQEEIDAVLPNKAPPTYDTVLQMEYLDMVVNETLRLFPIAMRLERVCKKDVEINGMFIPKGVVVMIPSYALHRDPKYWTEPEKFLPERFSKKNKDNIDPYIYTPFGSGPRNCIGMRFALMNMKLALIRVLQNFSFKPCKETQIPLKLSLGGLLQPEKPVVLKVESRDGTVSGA
Chain of Cytochrome P450 2E1 (P05181 whole entry): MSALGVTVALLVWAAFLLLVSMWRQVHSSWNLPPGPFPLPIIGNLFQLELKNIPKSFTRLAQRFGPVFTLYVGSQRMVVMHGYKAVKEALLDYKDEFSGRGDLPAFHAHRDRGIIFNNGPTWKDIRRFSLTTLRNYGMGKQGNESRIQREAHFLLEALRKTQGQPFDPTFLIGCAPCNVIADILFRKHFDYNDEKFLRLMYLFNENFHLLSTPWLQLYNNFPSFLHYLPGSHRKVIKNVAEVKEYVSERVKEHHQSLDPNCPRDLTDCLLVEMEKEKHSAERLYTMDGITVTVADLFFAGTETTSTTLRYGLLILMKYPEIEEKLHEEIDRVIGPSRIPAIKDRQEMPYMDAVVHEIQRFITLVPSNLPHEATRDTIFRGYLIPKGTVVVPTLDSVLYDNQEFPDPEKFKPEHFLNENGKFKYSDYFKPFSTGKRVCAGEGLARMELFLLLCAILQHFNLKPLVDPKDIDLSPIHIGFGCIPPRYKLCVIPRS

CS(=O)(=O)c1ccc(-c2nc(C(=O)NCc3cn(-c4cc(Br)ccn4)nn3)cs2)cc1
Tmax [1]: 3 h | Activity (Mus musculus [2]): Active | half-life [3]: 6.12 h | Cmax [4]: 1.3 µg/mL | Activity (Mus musculus [5]): Active | Activity (Mus musculus [6]): Active | inhibition (INH) (Cytochrome P450 3A4): Not Active | inhibition (INH) (Cytochrome P450 2E1): Not Active | inhibition [7]: 107% | IC50 (P2X purinoceptor 7): 0.0101 µM | Activity (Mus musculus [8]): Dose-Dependent Effect | Activity (Mus musculus [9]): Active
